Legend:
[1] = tested on: guinea pigs administered aerosolized LPS; assay: Aerosolized LPS exposure in guinea pigs, bronchoalveolar lavage (BAL) 24 h after LPS; assay type: in vivo; conditions: guinea pig
Description: The potential therapeutic effect of 2,3-alkylcarbonyloxybenzoic acids is exemplified by data generated in the study of 2,3-diacetoxybenzoic acid in guinea pigs. 2,3-diacetoxybenzoic acid was administered via intra-peritoneal injection to guinea pigs administered aerosolized LPS. Each animal was treated with 150 mg/kg of 2,3-diacetoxybenzoic acid or vehicle 1 hour prior to and 4 hours following LPS administration. Twenty four hours following administration of LPS, bronchoalveolar lavage (BAL) was performed. Intra-peritoneal administration of 2,3-diacetoxybenzoic acid appeared to have no effect on LPS-induced neutrophil recruitment into the lung. However, 2,3-diacetoxybenzoic acid treatment did produce a statistically significant reduction in albumin leakage (44%), a component of LPS-induced edema formation indicating a decrease in lung vascular permeability.

[2] = tested on: rat model of cecal ligation and perforation (CLP)-induced sepsis; assay: Awake rat model of cecal ligation and perforation (CLP)-induced sepsis, acute lung injury; assay type: in vivo
Source text: An awake rat model of cecal ligation and perforation (CLP)-induced sepsis was employed to examine the therapeutic effect of 2,3-diacetoxybenzoic acid in sepsis induced acute lung injury. Oxidative stress resulting in increased lung permeability is characteristic of the onset and progression of acute lung injury in this model. […] 2,3-Diacetoxybenzoic acid treated animals appeared to have improvement in sepsis-associated symptoms such as lethargy, diarrhea, anorexia, and abdomenal distention.

[3] = 150 mg/kg i.p. 1 h prior to and 4 h post LPS, BAL 24 h after LPS, mean ± SEM, n = 5
[4] = 2.5 mg/kg/h continuous infusion
[5] = 2.5 mg/kg/h continuous infusion from 1 h to 24 h after induction of sepsis, 24 hours, mean ± SEM

With CC(=O)Oc1cccc(C(=O)O)c1OC(C)=O [DABA, 2,3-diacetoxybenzoic acid] as the molecule, how does the “effect on LPS-induced neutrophil recruitment into the lung” value ([1]; 150 mg/kg i.p. 1 h prior to and 4 h following LPS) read?
Its value is “no effect”.

And the “reduction in albumin leakage” value ([1]; 150 mg/kg i.p. 1 h prior to and 4 h following LPS, versus vehicle, statistically significant)?
Its value is 44%.

And the “Albumin (BAL fluid)” value [1, 3]?
Its value is 605 ± 78 μg/mL BALF.

And the “Neutrophil (BAL fluid)” value [1, 3]?
The value was 80 ± 11 ×10^6/mL BALF.

And the “Total Cell (BAL fluid)” value [1, 3]?
Its value is 112 ± 14 ×10^6/mL BALF.

And the body temperature [2, 4]?
Its body temperature is “normalized”.

What about the cardiac output [2, 4] of the same molecule?
Its cardiac output is “normalized”.

And the respiratory rate [2, 4]?
Its respiratory rate is “normalized”.

And the “sepsis-associated symptoms such as lethargy, diarrhea, anorexia, and abdomenal distention” value [2, 4]?
The value was “improvement”.

What about the “lung microvascular permeability increases” value ([2]; 2.5 mg/kg/h continuous infusion from 1 h to 24 h after induction of sepsis) of the same molecule?
Its value is “reduced”.

What about the “Systemic WBC, 1 hour” value ([2]; 2.5 mg/kg/h continuous infusion from 1 h to 24 h after induction of sepsis, 1 hour, mean ± SEM) of the same molecule?
The value was 6.7 ± 1.1 ×10^9/liter.

And the “BAL WBC, 24 hours” value [2, 5]?
Its value is 0.04 ± 0.02 ×10^9/liter.

And the “BAL protein, 24 hours” value [2, 5]?
Its value is 1.45 ± 1.73 mg/dL.

What about the “Systemic WBC, 24 hours” value [2, 5] of the same molecule?
Its value is 3.6 ± 1.4 ×10^9/liter.

— patent US20040019022A1, “Use of 2,3 alkylcarbonyloxybenzoic acids, derivatives and analogues therefrom in the treatment of tissue and cellular dysfunction, damage and injury in mammals” (priority 2002, published 2004)
